Data from PubChem BioAssay (NCI).
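1) Cells in 96-well plates. 2) Compound, 48 h, 5 concentrations. 3) Linear interpolation between surrounding doses. 4) Unreached endpoint = highest concentration. GI50 is the concentration that inhibits growth by half. TGI is the concentration that stops growth completely.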

What follows are compounds tested on ACHN renal (assay: NCI anticancer screen, dose series, 48 h).
For `Cc1nc2ccccc2nc1CC(=O)C(=O)Nc1ccc(Cl)cc1Cl`, the TGI was > 100 µM.
With `COc1cc(Nc2cnc3ccc(C(F)(F)F)cc3n2)cc(OC)c1OC` the TGI was > 100 µM.
In the case of `O=C1[C@@H]2C(c3c(Cl)cccc3Cl)=NO[C@@H]2C(=O)N1c1ccc(Cc2ccc(N3C(=O)[C@H]4C(c5c(Cl)cccc5Cl)=NO[C@H]4C3=O)cc2)cc1`, the TGI is reported as > 100 µM.
With `O=C1NC2=C(CCCCC/C2=N\O)C12CCCCCC2` the TGI was > 100 µM.
`CCc1cccc(C)c1NC(=O)CCc1nc(=S)[nH][nH]1` was tested, and the TGI was > 100 µM.
With `N#C/C(=C\c1cc(OCc2ccccc2)c(OCc2ccccc2)cn1)C(N)=O` the TGI was > 100 µM.
In the case of `N#CC(C(=O)C(=O)Nc1c(Cl)cccc1Cl)c1ccccc1` (configuration not stated), the GI50 is reported as > 100 µM and the TGI is reported as > 100 µM.
For `COC(=O)C1C(C(=O)OC)C2C(=O)C3C(C(=O)OC)C(C(=O)OC)C3C(=O)C12` (configuration not stated), the TGI was > 100 µM.
`O=C(NC12CC3CCC1CC(C3)C2)[C@@H]1CCCN1C(=O)OCc1ccccc1` (some centres not stated) was tested, and the TGI was > 100 µM.
With `O=C1NC(=O)c2c1n(Cc1ccccc1)c(=O)n2Cc1ccccc1` the TGI was > 100 µM.
In the case of `Cc1nc(N)nc(CCC(=O)Nc2cccc(C(F)(F)F)c2)c1-c1ccc(Cl)cc1`, the TGI is reported as > 100 µM.
In the case of `COc1cc([C@@H]2c3cc4c(cc3[C@@H](NC(=O)c3ccc(C#N)cc3)C3COC(=O)[C@@H]32)OCO4)cc(OC)c1O` (some centres not stated), the TGI is reported as 1.47 µM.
In the case of `O=[N+]([O-])c1cccc(C2=NN(c3ccccc3)C3c4cc(Br)ccc4OCC23)c1` (configuration not stated), the TGI is reported as > 100 µM.
`COc1ccc(C(=O)c2cc(OC)c(OC)c(OC)c2OC)cc1O` was tested, and the GI50 was 8.94 µM and the TGI was > 100 µM.
`CCCCCOc1ccc(/C=N/Nc2cc(C)nc3ccc(Cl)cc23)cc1` gave a GI50 of 1.75 µM and a TGI of 3.13 µM.
`COc1cc2oc(-c3ccc(O)cc3)cc(=O)c2c(O)c1C1OC(CO)C(O)C(O)C1O` (configuration not stated) was tested, and the TGI was > 100 µM.
With `C[C@]12Cc3cn[nH]c3C(=O)C1CC[C@@H]1C2CC[C@@]2(C)C1CC[C@@H]2O` (some centres not stated) the TGI was > 100 µM.
`NNC(=O)C(=O)N/N=C1/CCCC1C(=O)CCC(=O)Nc1ccc(Cl)cc1` (configuration not stated) was tested, and the TGI was > 100 µM.
With `COC(=O)CCC(NC(=S)N/N=C/c1cccs1)C(=O)OC` (configuration not stated) the TGI was > 100 µM.
`O=c1/c(=C/c2ccccc2[N+](=O)[O-])sc2nnc(-c3cccnc3)n12` was tested, and the TGI was > 100 µM.
`COC(=O)/C=C(/C(=O)OC)C1(C)c2cc(C(=O)OC)c(C(=O)OC)c(N)c2C(=N)N1c1ccccc1` (configuration not stated) showed a TGI of 48.7 µM.
`O=C(NCCNCCO)c1ccc2c(c1)oc1cc3ccccc3c(=O)n12` was tested, and the GI50 was 19 µM and the TGI was > 50 µM.
In the case of `COC(=O)OC1C(O[C@H]2C[C@H]3[C@@H]4CC=C5C[C@@H](O)CC[C@]5(C)[C@H]4CC[C@]3(C)[C@H]2[C@H](C)C(=O)CCC(C)C)OCC(O)C1OC1OCC(O)C(O)C1OC(=O)c1ccc(OC)cc1` (some centres not stated), the GI50 is reported as 0.0721 µM and the TGI is reported as > 27.5 µM.
In the case of `CCOC(=O)c1nc(C)oc1C(F)(F)F`, the TGI is reported as > 100 µM.
In the case of `Cc1ccc(S(=O)(=O)OCC/C(=C\[Si](C)(C)C)c2ccccc2)cc1`, the TGI is reported as > 100 µM.
With `COc1nc2c(c(O)c(C)c(=O)n2OC2OCC(OC(C)=O)C(OC(C)=O)C2OC(C)=O)c(=O)n1C` (configuration not stated) the TGI was > 100 µM.
`CCc1ccccc1NC(=O)c1cccc([N+](=O)[O-])c1O` was tested, and the TGI was 62 µM.
For `O=C(NC1C(=O)NNC1c1cccc([N+](=O)[O-])c1)c1ccccc1` (configuration not stated), the TGI was > 100 µM.
Work on `CCCCCCCCCCCC[N+]1(CCCCCCCCCCCC)CCCC(C)C1` (configuration not stated) yielded a GI50 of 0.984 µM and a TGI of 2.27 µM.

The compounds below were run on CCRF-CEM leukemia (assay: NCI anticancer screen, dose series, 48 h).
With `Cc1nc2ccccc2nc1CC(=O)C(=O)Nc1ccc(Cl)cc1Cl` the TGI was > 100 µM.
With `COc1cc(Nc2cnc3ccc(C(F)(F)F)cc3n2)cc(OC)c1OC` the TGI was > 100 µM.
`O=C1[C@@H]2C(c3c(Cl)cccc3Cl)=NO[C@@H]2C(=O)N1c1ccc(Cc2ccc(N3C(=O)[C@H]4C(c5c(Cl)cccc5Cl)=NO[C@H]4C3=O)cc2)cc1` was tested, and the TGI was > 100 µM.
For `O=C1NC2=C(CCCCC/C2=N\O)C12CCCCCC2`, the TGI was > 100 µM.
In the case of `CCc1cccc(C)c1NC(=O)CCc1nc(=S)[nH][nH]1`, the TGI is reported as > 100 µM.
With `N#C/C(=C\c1cc(OCc2ccccc2)c(OCc2ccccc2)cn1)C(N)=O` the TGI was > 100 µM.
For `N#CC(C(=O)C(=O)Nc1c(Cl)cccc1Cl)c1ccccc1` (configuration not stated), the GI50 was > 100 µM and the TGI was > 100 µM.
`COC(=O)C1C(C(=O)OC)C2C(=O)C3C(C(=O)OC)C(C(=O)OC)C3C(=O)C12` (configuration not stated) was tested, and the TGI was > 100 µM.
For `O=C(NC12CC3CCC1CC(C3)C2)[C@@H]1CCCN1C(=O)OCc1ccccc1` (some centres not stated), the TGI was > 100 µM.
In the case of `O=C1NC(=O)c2c1n(Cc1ccccc1)c(=O)n2Cc1ccccc1`, the TGI is reported as > 100 µM.
In the case of `Cc1nc(N)nc(CCC(=O)Nc2cccc(C(F)(F)F)c2)c1-c1ccc(Cl)cc1`, the TGI is reported as > 100 µM.
With `COc1cc([C@@H]2c3cc4c(cc3[C@@H](NC(=O)c3ccc(C#N)cc3)C3COC(=O)[C@@H]32)OCO4)cc(OC)c1O` (some centres not stated) the TGI was > 100 µM.
`O=[N+]([O-])c1cccc(C2=NN(c3ccccc3)C3c4cc(Br)ccc4OCC23)c1` (configuration not stated) was tested, and the TGI was > 100 µM.
For `COc1cc2oc(-c3ccc(O)cc3)cc(=O)c2c(O)c1C1OC(CO)C(O)C(O)C1O` (configuration not stated), the TGI was > 100 µM.
For `C[C@]12Cc3cn[nH]c3C(=O)C1CC[C@@H]1C2CC[C@@]2(C)C1CC[C@@H]2O` (some centres not stated), the TGI was > 100 µM.
With `NNC(=O)C(=O)N/N=C1/CCCC1C(=O)CCC(=O)Nc1ccc(Cl)cc1` (configuration not stated) the TGI was > 100 µM.
In the case of `O=c1/c(=C/c2ccccc2[N+](=O)[O-])sc2nnc(-c3cccnc3)n12`, the TGI is reported as > 100 µM.
`COC(=O)/C=C(/C(=O)OC)C1(C)c2cc(C(=O)OC)c(C(=O)OC)c(N)c2C(=N)N1c1ccccc1` (configuration not stated) was tested, and the TGI was 50.4 µM.
`CCOC(=O)c1nc(C)oc1C(F)(F)F` was tested, and the TGI was > 100 µM.
In the case of `Cc1ccc(S(=O)(=O)OCC/C(=C\[Si](C)(C)C)c2ccccc2)cc1`, the TGI is reported as > 100 µM.
For `COc1nc2c(c(O)c(C)c(=O)n2OC2OCC(OC(C)=O)C(OC(C)=O)C2OC(C)=O)c(=O)n1C` (configuration not stated), the TGI was > 100 µM.
For `CCc1ccccc1NC(=O)c1cccc([N+](=O)[O-])c1O`, the TGI was > 100 µM.
With `O=C(NC1C(=O)NNC1c1cccc([N+](=O)[O-])c1)c1ccccc1` (configuration not stated) the TGI was > 100 µM.

The compounds below were run on HCT-116 colon (assay: NCI anticancer screen, dose series, 48 h).
For `Cc1nc2ccccc2nc1CC(=O)C(=O)Nc1ccc(Cl)cc1Cl`, the TGI was > 100 µM.
For `COc1cc(Nc2cnc3ccc(C(F)(F)F)cc3n2)cc(OC)c1OC`, the TGI was > 100 µM.
With `O=C1NC2=C(CCCCC/C2=N\O)C12CCCCCC2` the TGI was > 100 µM.
With `CCc1cccc(C)c1NC(=O)CCc1nc(=S)[nH][nH]1` the TGI was > 100 µM.
For `N#C/C(=C\c1cc(OCc2ccccc2)c(OCc2ccccc2)cn1)C(N)=O`, the TGI was > 100 µM.
For `COC(=O)C1C(C(=O)OC)C2C(=O)C3C(C(=O)OC)C(C(=O)OC)C3C(=O)C12` (configuration not stated), the TGI was > 100 µM.
With `O=C(NC12CC3CCC1CC(C3)C2)[C@@H]1CCCN1C(=O)OCc1ccccc1` (some centres not stated) the TGI was > 100 µM.
With `O=C1NC(=O)c2c1n(Cc1ccccc1)c(=O)n2Cc1ccccc1` the TGI was > 100 µM.
`Cc1nc(N)nc(CCC(=O)Nc2cccc(C(F)(F)F)c2)c1-c1ccc(Cl)cc1` was tested, and the TGI was > 100 µM.
With `COc1cc([C@@H]2c3cc4c(cc3[C@@H](NC(=O)c3ccc(C#N)cc3)C3COC(=O)[C@@H]32)OCO4)cc(OC)c1O` (some centres not stated) the TGI was 3.29 µM.
With `O=[N+]([O-])c1cccc(C2=NN(c3ccccc3)C3c4cc(Br)ccc4OCC23)c1` (configuration not stated) the TGI was > 100 µM.
With `COc1ccc(C(=O)c2cc(OC)c(OC)c(OC)c2OC)cc1O` the GI50 was 3.98 µM and the TGI was > 100 µM.
